From US12077503B2, “Substituted cyclic amides and their use as herbicides” (FMC CORPORATION, priority 2015, dated 2024)

Columns and labels:
Type in all cases: in vivo
[1] = test system: Kochia (Kochia scoparia); assay: Test A preemergence; conditions: Bassia scoparia, pre-emergence, 240 h, 0 to 100 scale where 0 is no effect and 100 is complete control, read-out: Kochia plant response rating; for pest or weed control at 31 g/ha: 31 g ai/ha, Preemergence; for pest or weed control at 125 g/ha: 125 g ai/ha, preemergence, approx. 10 d
Summary of the method: (§1)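 Treatment is preemergence as a directed soil spray after planting, or postemergence at the one- to two-leaf stage, with test chemical in a non-phytotoxic solvent mixture plus surfactant. Plants stay in the greenhouse about 10 d before visual injury scoring on a 0 to 100 scale versus untreated controls.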

[2] = test system: giant foxtail (Setaria faberii); assay: Test A preemergence; conditions: Setaria faberi, pre-emergence, 240 h, 0 to 100 scale where 0 is no effect and 100 is complete control, read-out: Foxtail, Giant plant response rating; for pest or weed control at 31 g/ha: 31 g ai/ha, Preemergence; for pest or weed control at 125 g/ha: 125 g ai/ha, preemergence, approx. 10 d
Summary of the method: as §1

[3] = test system: ragweed (common ragweed, Ambrosia elatior); assay: Test A preemergence; conditions: Ambrosia artemisiifolia, pre-emergence, 240 h, 0 to 100 scale where 0 is no effect and 100 is complete control, read-out: Ragweed plant response rating; for pest or weed control at 31 g/ha: 31 g ai/ha, Preemergence; for pest or weed control at 125 g/ha: 125 g ai/ha, preemergence, approx. 10 d
Summary of the method: as §1

[4] = test system: barnyardgrass (Echinochloa crus-galli); assay: Test A preemergence; conditions: Echinochloa crus-galli, pre-emergence, 240 h, 0 to 100 scale where 0 is no effect and 100 is complete control, read-out: Barnyardgrass plant response rating; for pest or weed control at 31 g/ha: 31 g ai/ha, Preemergence; for pest or weed control at 125 g/ha: 125 g ai/ha, preemergence, approx. 10 d
Summary of the method: as §1

[5] = test system: ryegrass, Italian (Italian ryegrass, Lolium multiflorum); assay: Test A preemergence; conditions: Lolium multiflorum, pre-emergence, 240 h, 0 to 100 scale where 0 is no effect and 100 is complete control, read-out: Ryegrass, Italian plant response rating; for pest or weed control at 31 g/ha: 31 g ai/ha, Preemergence; for pest or weed control at 125 g/ha: 125 g ai/ha, preemergence, approx. 10 d
Summary of the method: as §1

[6] = test system: pigweed (Amaranthus retroflexus); assay: Test A preemergence; conditions: Amaranthus retroflexus, pre-emergence, 240 h, 0 to 100 scale where 0 is no effect and 100 is complete control, read-out: Pigweed plant response rating; for pest or weed control at 31 g/ha: 31 g ai/ha, Preemergence; for pest or weed control at 125 g/ha: 125 g ai/ha, preemergence, approx. 10 d
[7] = test system: Kochia (Kochia scoparia); assay: Test A postemergence; conditions: Bassia scoparia, post-emergence, 240 h; for pest or weed control at 125 g/ha: 125 g ai/ha, postemergence, visual injury vs untreated controls after approx. 10 d, 0 = no effect, 100 = complete control, read-out: Kochia plant response rating (0 to 100 scale); for pest or weed control at 31 g/ha: Postemergence, 31 g ai/ha, visual injury after approx. 10 d, 0 to 100 scale, 0 no effect, 100 complete control, read-out: Plant response rating, Kochia
Summary of the method: as §1

[8] = test system: giant foxtail (Setaria faberii); assay: Test A postemergence; conditions: Setaria faberi, post-emergence, 240 h; for pest or weed control at 125 g/ha: 125 g ai/ha, postemergence, visual injury vs untreated controls after approx. 10 d, 0 = no effect, 100 = complete control, read-out: Foxtail, Giant plant response rating (0 to 100 scale); for pest or weed control at 31 g/ha: Postemergence, 31 g ai/ha, visual injury after approx. 10 d, 0 to 100 scale, 0 no effect, 100 complete control, read-out: Plant response rating, Foxtail, Giant
Summary of the method: as §1

[9] = test system: ragweed (common ragweed, Ambrosia elatior); assay: Test A postemergence; conditions: Ambrosia artemisiifolia, post-emergence, 240 h, 125 g ai/ha, postemergence, visual injury vs untreated controls after approx. 10 d; 0 = no effect, 100 = complete control; read-out: Ragweed plant response rating (0 to 100 scale)
Summary of the method: as §1

[10] = test system: barnyardgrass (Echinochloa crus-galli); assay: Test A postemergence; conditions: Echinochloa crus-galli, post-emergence, 240 h; for pest or weed control at 125 g/ha: 125 g ai/ha, postemergence, visual injury vs untreated controls after approx. 10 d, 0 = no effect, 100 = complete control, read-out: Barnyardgrass plant response rating (0 to 100 scale); for pest or weed control at 31 g/ha: Postemergence, 31 g ai/ha, visual injury after approx. 10 d, 0 to 100 scale, 0 no effect, 100 complete control, read-out: Plant response rating, Barnyardgrass
Summary of the method: as §1

[11] = test system: Galium (catchweed bedstraw, Galium aparine); assay: Test A postemergence; conditions: Galium, post-emergence, 240 h; for pest or weed control at 125 g/ha: 125 g ai/ha, postemergence, visual injury vs untreated controls after approx. 10 d, 0 = no effect, 100 = complete control, read-out: Galium plant response rating (0 to 100 scale); for pest or weed control at 31 g/ha: Postemergence, 31 g ai/ha, visual injury after approx. 10 d, 0 to 100 scale, 0 no effect, 100 complete control, read-out: Plant response rating, Galium
Summary of the method: as §1

[12] = test system: blackgrass (Alopecurus myosuroides); assay: Test A postemergence; conditions: Alopecurus myosuroides, post-emergence, 240 h; for pest or weed control at 125 g/ha: 125 g ai/ha, postemergence, visual injury vs untreated controls after approx. 10 d, 0 = no effect, 100 = complete control, read-out: Blackgrass plant response rating (0 to 100 scale); for pest or weed control at 31 g/ha: Postemergence, 31 g ai/ha, visual injury after approx. 10 d, 0 to 100 scale, 0 no effect, 100 complete control, read-out: Plant response rating, Blackgrass
Summary of the method: as §1

[13] = test system: wheat (Triticum aestivum); assay: Test A postemergence; conditions: Triticum aestivum, post-emergence, 240 h, 125 g ai/ha, postemergence, visual injury vs untreated controls after approx. 10 d; 0 = no effect, 100 = complete control; read-out: Wheat plant response rating (0 to 100 scale)
Summary of the method: as §1

[14] = test system: ryegrass, Italian (Italian ryegrass, Lolium multiflorum); assay: Test A postemergence; conditions: Lolium multiflorum, post-emergence, 240 h, 125 g ai/ha, postemergence, visual injury vs untreated controls after approx. 10 d; 0 = no effect, 100 = complete control; read-out: Ryegrass, Italian plant response rating (0 to 100 scale)
Summary of the method: as §1

[15] = test system: pigweed (Amaranthus retroflexus); assay: Test A postemergence; conditions: Amaranthus retroflexus, post-emergence, 240 h, 125 g ai/ha, postemergence, visual injury vs untreated controls after approx. 10 d; 0 = no effect, 100 = complete control; read-out: Pigweed plant response rating (0 to 100 scale)
Summary of the method: as §1

[16] = test system: corn (Zea mays); assay: Test A postemergence; conditions: Zea mays, post-emergence, 240 h; for plant injury at 125 g/ha: 125 g ai/ha, postemergence, visual injury vs untreated controls after approx. 10 d, 0 = no effect, 100 = complete control, read-out: Corn plant response rating (0 to 100 scale); for Corn plant response rating (crop injury, 0 = no effect, 100 = complete kill) at 31 g/ha: Postemergence, 31 g ai/ha, visual injury after approx. 10 d, 0 to 100 scale, 100 complete control
Summary of the method: as §1

[17] = test system: sedge, umbrella (small-flower umbrella sedge, Cyperus difformis); assay: Test B flooded paddy test; conditions: Cyperus difformis, 250 g ai/ha, Flood; 0 to 100 scale where 0 is no effect and 100 is complete control; read-out: Sedge, Umbrella plant response rating
Summary of the method: (§2)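 Response scored visually against untreated controls, 0 = no effect and 100 = complete control, 13–15 d after treatment in the greenhouse. Compounds added to paddy water held 3 cm above soil surface. Treatment given at 2-leaf stage.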

[18] = test system: ducksalad (Heteranthera limosa); assay: Test B flooded paddy test; conditions: Heteranthera limosa, 250 g ai/ha, Flood; 0 to 100 scale where 0 is no effect and 100 is complete control; read-out: Ducksalad plant response rating
Summary of the method: as §2

[19] = test system: barnyardgrass (Echinochloa crus-galli); assay: Test B flooded paddy test; conditions: Echinochloa crus-galli, 250 g ai/ha, Flood; 0 to 100 scale where 0 is no effect and 100 is complete control; read-out: Barnyardgrass plant response rating
Summary of the method: as §2

[20] = test system: rice (Oryra sativa); assay: Test B flooded paddy test; conditions: Oryza sativa, 250 g ai/ha, Flood; 0 to 100 scale where 0 is no effect and 100 is complete control; read-out: Rice plant response rating
Summary of the method: as §2

Row | Compound | pest or weed control at 31 g/ha [1] | pest or weed control at 125 g/ha [1] | pest or weed control at 31 g/ha [2] | pest or weed control at 125 g/ha [2] | pest or weed control at 31 g/ha [3] | pest or weed control at 125 g/ha [3] | pest or weed control at 31 g/ha [4] | pest or weed control at 125 g/ha [4] | pest or weed control at 31 g/ha [5] | pest or weed control at 125 g/ha [5] | pest or weed control at 31 g/ha [6] | pest or weed control at 125 g/ha [6] | pest or weed control at 31 g/ha [7] | pest or weed control at 125 g/ha [8] | pest or weed control at 31 g/ha [8] | pest or weed control at 125 g/ha [9] | pest or weed control at 125 g/ha [10] | pest or weed control at 31 g/ha [10] | pest or weed control at 125 g/ha [11] | pest or weed control at 31 g/ha [11] | other results
1 | CN1C[C@H](c2ccc([Si](C)(C)C)cc2)[C@@H](C(=O)Nc2cccc(F)c2F)C1=O [Compound 1168] | 0% | 0% | 0% | 30% | 0% | 0% | 0% | 0% | 0% | 0% | 0% | 0% | 0% | 20% | 0% | 0% | 0% | 0% | 30% | 0% | pest or weed control at 125 g/ha [7]: 0%; pest or weed control at 125 g/ha [12]: 0%; pest or weed control at 31 g/ha [12]: 0%; plant injury at 125 g/ha [13]: 20%; pest or weed control at 125 g/ha [14]: 0%; pest or weed control at 125 g/ha [15]: 0%; plant injury at 125 g/ha [16]: 0%; Corn plant response rating (crop injury, 0 = no effect, 100 = complete kill) at 31 g/ha [16]: 0%; pest or weed control at 250 g/ha [17]: 0%; pest or weed control at 250 g/ha [18]: 0%; pest or weed control at 250 g/ha [19]: 40%; pest or weed control at 250 g/ha [20]: 30%
2 | CON1CC[C@H](c2cccc(C(F)(F)F)c2)[C@@H](C(=O)Nc2cccc(F)c2F)C1=O [Compound 1169] | 30% | 30% | 70% | 90% | 0% | 0% | 70% | 90% | 0% | 0% | 0% | 0% | 0% | 70% | 30% | 0% | 80% | 30% | 0% | 0% | pest or weed control at 125 g/ha [7]: 20%; pest or weed control at 125 g/ha [12]: 0%; pest or weed control at 31 g/ha [12]: 0%; plant injury at 125 g/ha [13]: 0%; pest or weed control at 125 g/ha [14]: 0%; pest or weed control at 125 g/ha [15]: 0%; plant injury at 125 g/ha [16]: 0%; Corn plant response rating (crop injury, 0 = no effect, 100 = complete kill) at 31 g/ha [16]: 0%; pest or weed control at 250 g/ha [17]: 0%; pest or weed control at 250 g/ha [18]: 0%; pest or weed control at 250 g/ha [19]: 0%; pest or weed control at 250 g/ha [20]: 0%
3 | CON1CC[C@H](c2cccc(C(F)(F)F)c2)[C@@H](C(=O)Nc2ccc(F)c(F)c2F)C1=O [Compound 1170] | 0% | 0% | 0% | 70% | 0% | 0% | 0% | 40% | 0% | 0% | 0% | 0% | 0% | 60% | 0% | 0% | 60% | 0% | 30% | 20% | pest or weed control at 125 g/ha [12]: 20%; pest or weed control at 31 g/ha [12]: 0%; plant injury at 125 g/ha [13]: 0%; pest or weed control at 125 g/ha [14]: 0%; pest or weed control at 125 g/ha [15]: 0%; plant injury at 125 g/ha [16]: 0%; Corn plant response rating (crop injury, 0 = no effect, 100 = complete kill) at 31 g/ha [16]: 0%; pest or weed control at 250 g/ha [17]: 0%; pest or weed control at 250 g/ha [18]: 40%; pest or weed control at 250 g/ha [19]: 30%; pest or weed control at 250 g/ha [20]: 0%
